In brackets after ≈: the same amount, converted by molar mass.
How the values were obtained:
M. smegmatis SG987 [1] = test: MIC assay, broth microdilution; type: cell-based, Mycobacterium smegmatis; details: for MIC: Mycolicibacterium smegmatis, SG987, read-out: MIC M. smeg. SG987
From the text: The protocol used is the broth microdilution method in microtiter plates (MTP), based upon that detailed by the CLSI (Clinical and Laboratory Standards Institute (CLSI). 2006. Methods for Dilution Antimicrobial Susceptibility Tests for Bacteria that Grow Aerobically; Approved Standard. 7th edn. Document M7-A6. Clinical and Laboratory Standards Institute, Wayne, PA.).
Strain: Mycobacterium smegmatis, ATCC 700084, or other Mycobacterium strains (see table below).
Medium: The bacteria culture and the MIC were done using the following medium: MHB - Mueller-Hinton Broth + 0.05% Tween80, purchased from Difco, Tween80 has been added to avoid clumping of the bacteria.
This highest concentration is filled in the first row of the microtiter plate and further diluted in the culture medium for the Mycobacteria (Mueller-Hinton Broth and Middlebrook 7H9 broth). All solutions are freshly prepared under sterile conditions.
Resazurin salt powder (Sigma) is prepared at 0.01 % (wt/vol) in distilled water, sterilized by filtration through a 0.22 µm membrane and stored at 4°C for a week.
Ciprofloxacin, isoniaz-d and rifampicin can be used as reference compounds for control of the assay as well as a solvent control. Minimal inhibitory concentrations (MIC) are determined by the broth microdilution method. 50 µl of the compound solution in DMSO/MeOH are serially diluted directly in the microtiter plate by factor two with Mueller-Hinton broth (MHB)(Difco). Then the wells are inoculated with 50 µl of test organisms in MHB to give a final concentration of 5x10^5 CFU/ml. After microtiter plates are incubated at 37°C for 48 h, the optical density of each well is measured with a Nepheloscan Ascent 1.4 automatic plate reader (Labsystems, Vantaa, Finland). Then 30 µl of resazurin solution is added to each well and plates are allowed to incubate at 37°C for additional 24 h. A change from blue to pink indicates reduction of resazurin and therefore bacterial growth. The MIC is defined as the lowest drug concentration that prevents this colour change.

M. vaccae 10670 = test: MIC assay, broth microdilution; type: cell-based; details: for MIC: Mycolicibacterium vaccae, 10670
MDR M. tuberculosis = test: MIC assay, broth microdilution; type: cell-based; details: for MIC: Mycobacterium tuberculosis, read-out: MIC M. 1b.
[2] = Chemical stability in NaCl/HCl/pepsin; type: physicochemical
[3] = Metabolic stability, human; type: in vitro ADME
[4] = Metabolic stability, mouse; type: in vitro ADME
Plasma stability, human = type: in vitro ADME
Plasma stability, mouse = type: in vitro ADME
M. smegmatis SG987 [5] = test: Agar diffusion assay; type: cell-based, Mycobacterium smegmatis; set-up: key to colonies in the inhibition zone: (p): few colonies in the inhibition zone; p: colonies in the inhibition zone; P: many colonies in the inhibition zone; A: faint indication of inhibition zone; details: for zone of inhibition at 1 µg/mL: Mycolicibacterium smegmatis; for colonies in the inhibition zone: at 1 µg/ml
Description: Antimicrobial activity is additionally determined by agar diffusion tests according to: European Pharmacopoeia, 3rd edition, 1997; 13, 118, Deutscher Apotheker Verlag Stuttgart
100 µl suspension of the test organism M. smegmatis SG987 with a density of McFarland standard 0.5 are inoculated into 34 ml of sterile melted agar medium (Nutrient agar from Serva Electrophoresis GmbH, Heidelberg, Germany) and poured into Petri dishes. Wells of 9 mm in diameter are cut in the agar and filled with 50 µl of the compound solution (for concentrations see Table 2). Compounds are dissolved in DMSO in a concentration of 1 mg/ml and further diluted in methanol to the final concentration. Growth inhibition zones around the agar wells are read after overnight incubation at 37°C.

M fort. = test: MIC assay, broth microdilution; type: cell-based
M. aurum = test: MIC assay, broth microdilution; type: cell-based; details: Mycolicibacterium aurum
M. tuberculosis H37Rv = test: In-vivo mouse survival; details: 50 img/kg
Mycobacteria = details: existing anti-tuberculosis drugs, comparison values; cited from earlier work
[6] = Test compound 5 µM in 35mM NaCl, 85 mM HCl, appr. 2000 U pepsin
[7] = Human, test compound 1 µM in NADP (1.3 mM), G6P 3.3 mM, G6PDHase, DMSO
[8] = Mouse, test compound 1 µM in NADP (1.3 mM), G6P 3.3 mM, G6PDHase, DMSO
[9] = Human, test compound 5 µM in plasma
[10] = Mouse, test compound 5 µM in plasma

Row | Structure (SMILES) | MIC (M. smegmatis SG987 [1]) [ng/mL] | MIC (M. vaccae 10670) [ng/mL] | MIC (MDR M. tuberculosis) [ng/mL] | Chemical Stability [2, 6] [%] | Metabolic Stability Human [3, 7] [%] | Metabolic Stability Mouse [4, 8] [%] | Plasma Stability Human (Plasma stability, human; [9]) [%] | Plasma Stability Mouse (Plasma stability, mouse; [10]) [%] | zone of inhibition at 1 µg/mL (M. smegmatis SG987 [5]) [mm] | other results
1 | O=c1nc(N2CCC(c3cccc(F)c3)CC2)sc2c([N+](=O)[O-])cc(C(F)(F)F)cc12 [Compound 4] | < 5 | < 0.0012 | 16 (≈ 35.3 nM) | 71 | 28 | 10 | 99 | 107 | 24 | –
2 | O=c1nc(N2CCC(c3ccccc3)CC2)sc2c([N+](=O)[O-])cc(C(F)(F)F)cc12 [Compound 1] | 4 (≈ 9.19 nM) | 0.4 (≈ 0.919 nM) | < 15 | 82 | 120 | 75 | 96 | 71 | – | MIC (M fort.): 12.5 ng/mL (≈ 28.7 nM); MIC (M. aurum): > 100 ng/mL; In-vivo Mouse Survival 4 wks (M. tuberculosis H37Rv): 4 of 10
3 | O=c1nc(N2CCC(c3ccc(F)c(F)c3)CC2)sc2c([N+](=O)[O-])cc(C(F)(F)F)cc12 [Compound 5] | < 5 | < 0.0012 | 8 (≈ 17 nM) | 63 | 49 | 28 | 124 | 111 | 27 | –
4 | O=c1nc(N2CCC(Cc3ccccc3)CC2)sc2c([N+](=O)[O-])cc(C(F)(F)F)cc12 [Compound 6] | < 5 | < 0.0012 | 32 (≈ 71.2 nM) | 55 | 1 | 0 | 98 | 108 | – | –
5 | CC[C@@H](CO)NCCN[C@@H](CC)CO [ethambutol] | – | – | – | – | – | – | – | – | – | MIC (Mycobacteria): 1000 to 5000 ng/mL
6 | NNC(=O)c1ccncc1 [isoniazid] | – | – | – | – | – | – | – | – | – | MIC (Mycobacteria): 20 to 200 ng/mL
7 | Cc1cccc(C2CCN(c3nc(=O)c4cc(C(F)(F)F)cc([N+](=O)[O-])c4s3)CC2)c1 [Compound 7] | < 5 | < 0.0012 | 8 (≈ 17.8 nM) | 53 | 21 | 18 | 103 | 100 | – | –
8 | O=c1nc(N2CCC(c3ccc(Cl)cc3)CC2)sc2c([N+](=O)[O-])cc(C(F)(F)F)cc12 [Compound 2] | < 5 | < 0.0012 | 4 (≈ 8.51 nM) | 52 | 59 | 39 | 86 | 88 | 22 | MIC M. smeg. SG987 (M. smegmatis SG987 [1]; M. smeg. SG987): < 5 ng/mL; MIC M. vaccae 10670 (M. vaccae 10670; M. vaccae 10670): < 0.0012 ng/mL; MIC M. 1b. (MDR M. tuberculosis; M. 1b., MDR M. tuberculosis): 4 ng/mL (≈ 8.51 nM)
9 | O=C(O)c1cn(C2CC2)c2cc(N3CCNCC3)c(F)cc2c1=O [III (Ref.), ciprofloxacin, reference compound] | 200 (≈ 604 nM) | – | – | – | – | – | – | – | 20 | colonies in the inhibition zone (M. smegmatis SG987 [5]): p
10 | O=c1nc(N2CCC(c3ccccc3F)CC2)sc2c([N+](=O)[O-])cc(C(F)(F)F)cc12 [Compound 8] | < 5 | < 0.0012 | 8 (≈ 17.6 nM) | 61 | 69 | 78 | 107 | 105 | 27 | –
11 | C[C@H]1COC2(CCN(c3nc(=O)c4cc(C(F)(F)F)cc([N+](=O)[O-])c4s3)CC2)O1 [I (Ref.), reference compound] | < 5 | 0.625 (≈ 1.45 nM) | < 15 | – | – | – | – | – | 17 | MIC (M fort.): 1.56 ng/mL (≈ 3.62 nM); MIC (M. aurum): > 100000 ng/mL; Chemical Stability ([2]; 5 µM): 98%; Metabolic Stability Human ([3]; human, 1 µM): 107%; Metabolic Stability Mouse ([4]; mouse, 1 µM): 97%; Plasma Stability Human (Plasma stability, human; human, 5 µM): 98%; Plasma Stability Mouse (Plasma stability, mouse; mouse, 5 µM): 45%; colonies in the inhibition zone (M. smegmatis SG987 [5]): p-P
12 | Cc1ccc(C2CCN(c3nc(=O)c4cc(C(F)(F)F)cc([N+](=O)[O-])c4s3)CC2)cc1 [Compound 3] | < 5 | < 0.0012 | 8 (≈ 17.8 nM) | 54 | 30 | 9 | 98 | 108 | < 22 | –
13 | O=c1nc(N2CCN(Cc3ccccc3)CC2)sc2c([N+](=O)[O-])cc(C(F)(F)F)cc12 [II (Ref.), reference compound] | 50 (≈ 111 nM) | 50 (≈ 111 nM) | – | – | – | – | – | – | – | MIC (M fort.): 50 ng/mL (≈ 111 nM)
